Reference: patent US7045532B2 (Millennium Pharmaceuticals, Inc., priority 1999, dated 2006)
Like-named read-outs stand apart in the source and are kept apart here.

Target: T1, ACE-2 (Homo sapiens, UniProt Q9BYF1)
T1 construct: a stop codon inserted after the serine immediately preceding the transmembrane domain; made in house; host or cells: CHO K1 cells (transient transfection, purified from conditioned medium)
Test: ACE-2 Competitive Substrate Assay (ACS Assay)
Assay type: biochemical

[1] = Ki class per key, compounds tested in 5% DMSO, 12 compound concentrations, 25° C., Ki=Kiapp/(1+[S]/Km), read-out: Human ACE-2 Activity
[2] = Table 3, very good ACE-2 inhibiting compounds, species not given, read-out: ACE-2 Activity, Ki
[3] = Ki class, compounds tested in 5% DMSO, 12 compound concentrations, Ki=Kiapp/(1+[S]/Km), read-out: Human ACE-2 Activity
[4] = Ki class, compounds tested in 5% DMSO, 12 concentrations, read-out: Human ACE-2 Activity

T1 sequence (Q9BYF1 18-740 limits assumed): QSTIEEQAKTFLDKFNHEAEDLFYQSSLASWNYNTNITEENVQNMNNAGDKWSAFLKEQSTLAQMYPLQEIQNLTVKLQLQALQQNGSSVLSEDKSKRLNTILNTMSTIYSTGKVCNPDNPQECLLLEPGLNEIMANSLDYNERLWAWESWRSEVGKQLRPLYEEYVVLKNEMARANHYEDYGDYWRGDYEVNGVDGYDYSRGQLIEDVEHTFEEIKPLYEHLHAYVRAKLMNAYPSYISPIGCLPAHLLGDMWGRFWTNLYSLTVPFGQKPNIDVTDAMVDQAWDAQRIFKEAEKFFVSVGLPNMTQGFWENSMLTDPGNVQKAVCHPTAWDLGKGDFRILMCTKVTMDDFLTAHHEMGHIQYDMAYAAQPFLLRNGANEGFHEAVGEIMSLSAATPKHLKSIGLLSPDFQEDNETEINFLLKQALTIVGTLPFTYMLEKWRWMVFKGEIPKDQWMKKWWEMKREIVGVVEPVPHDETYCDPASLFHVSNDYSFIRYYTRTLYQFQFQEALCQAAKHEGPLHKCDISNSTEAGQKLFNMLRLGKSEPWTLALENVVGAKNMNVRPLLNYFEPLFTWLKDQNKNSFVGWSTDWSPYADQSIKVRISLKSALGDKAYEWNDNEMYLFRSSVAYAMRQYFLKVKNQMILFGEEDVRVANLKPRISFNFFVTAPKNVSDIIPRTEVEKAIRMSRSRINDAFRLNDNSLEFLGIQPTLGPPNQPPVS

Ki [2] | Ki [3] | Compound | further results
50 to 100 nM | – | CC(C)C[C@H](N[C@@H](Cc1ccc(Oc2ccc(F)cc2)cc1)C(=O)O)C(=O)O [QP, 2-[1-Carboxy-2-[4-(4-fluoro-phenoxy)-phenyl]-ethylamino]-4-methyl-pentanoic acid] | Ki [1]: < 100 nM
– | > 500 nM | CC(C)CC(N[C@@H](Cc1cn(Cc2cccc(F)c2F)cn1)C(=O)O)C(=O)O (some centres unmarked) [IW, 2-[1-Carboxy-2-[1-(2,3-difluoro-benzyl)-1H-imidazol-4-yl]-ethylamino]4-methyl-pentanoic acid] | –
– | > 500 nM | Cc1ccc(-c2cccc(C[C@H](N[C@@H](CC(C)C)C(=O)O)C(=O)O)c2)cc1 [LY, (S,S)-2-[1-Carboxy-2-(4′-methyl-biphenyl-3-yl)-ethylamino]-4-methyl-pentanoic acid] | –
< 50 nM | – | CC(C)C[C@H](N[C@@H](Cc1ccc(C(=O)Nc2cc(Cl)cc(Cl)c2)cc1)C(=O)O)C(=O)O [QE, 2-[1-Carboxy-2-[4-(3,5-dichloro-phenylcarbamoyl)-phenyl]ethylamino]-4-methyl-pentanoic acid] | Ki [1]: < 100 nM
– | 100 to 500 nM | COc1cccc(C(=O)NC[C@H](N[C@@H](CC(C)C)C(=O)O)C(=O)O)c1 [LZ, 2-[1-Carboxy-2-(3-methoxy-benzoylamino)-ethylamino]-4-methyl-pentanoic acid] | –
– | > 500 nM | CC(C)C[C@H](N[C@@H](CNC(=O)c1cc2cc(Cl)ccc2[nH]1)C(=O)O)C(=O)O [ND, 2-{1-Carboxy-2-[(5-chloro-1H-indole-2-carbonyl)-amino]-ethylamino}-4-methyl-pentanoic acid] | –
50 to 100 nM | < 100 nM | CC(C)C[C@H](N[C@@H](CC1COC(=O)N1Cc1cc(Cl)cc(Cl)c1)C(=O)O)C(=O)O (stereo in doubt) [NE, (S,S,S)-2-{1-Carboxy-2-[3-(3,5-dichloro-benzyl)-2-oxo-oxazolidin-4-yl]-ethylamino}-4-methyl-pentanoic acid] | –
– | – | CC(C)C[C@H](N[C@@H](Cc1ccc(C(=O)Nc2ccccc2)cc1)C(=O)O)C(=O)O [QF, 2-[1-Carboxy-2-(4-phenylcarbamoyl-phenyl)-ethylamino]-4-methyl-pentanoic acid] | Ki [1]: 100 to 500 nM
< 50 nM | < 100 nM | CC(C)C[C@H](N[C@@H](Cn1ccn(Cc2cccc(Cl)c2)c1=O)C(=O)O)C(=O)O [OE, (S,S)-2-{1-Carboxy-2-[3-(3-chloro-benzyl)-2-oxo-2,3-dihydro-imidazol-1-yl]-ethylamino}-4-methyl-pentanoic acid] | –
– | – | CC(C)C[C@H](N[C@@H](Cc1ccc(NC(=O)C2CCCC2)cc1)C(=O)O)C(=O)O [QR, 2-[1-Carboxy-2-[4-(cyclopentanecarbonyl-amino)-phenyl]-ethylamino]-4-methyl-pentanoic acid] | Ki [1]: 100 to 500 nM
50 to 100 nM | < 100 nM | CC(C)C[C@H](N[C@@H](Cc1ccc(Cc2ccccc2)cc1)C(=O)O)C(=O)O [OG, (S,S)-2-[2-(4-Benzyl-phenyl)-1-carboxy-ethylamino]-4-methyl-pentanoic acid] | –
50 to 100 nM | < 100 nM | CC(C)C[C@H](N[C@@H](Cn1ccn(Cc2cc(Cl)cc(Cl)c2)c1=O)C(=O)O)C(=O)O [LF, (S,S) 2-{1-Carboxy-2-[3-(3,5-dichloro-benzyl)-2-oxo-2,3-dihydro-imidazol-1-yl]-ethylamino}-4-methyl-pentanoic acid] | –
– | – | CC(C)C[C@H](N[C@@H](CN1C(=O)CN(Cc2cc(F)cc(F)c2)C1=O)C(=O)O)C(=O)O [PW, 2-[1-Carboxy-2-[3-(3,5-difluoro-benzyl)-2,5-dioxo-imidazolidin-1-yl]-ethylamino]-4-methyl-pentanoic acid] | Ki [1]: < 100 nM
– | – | CC(C)C[C@H](N[C@@H](Cc1ccccc1OCc1cccc(Cl)c1)C(=O)O)C(=O)O [QO, 2-[1-Carboxy-2-[2-(3-chloro-benzyloxy)-phenyl]-ethylamino]-4-methyl-pentanoic acid] | Ki [1]: > 500 nM
– | > 500 nM | CC(C)CC(N[C@@H](Cc1cncn1Cc1c(Cl)cccc1Cl)C(=O)O)C(=O)O (single isomer, unassigned) [JD, 2-[1-Carboxy-2-[3-(2,6-dichloro-benzyl)-3H-imidazol-4-yl]-ethylamino]4-methyl-pentanoic acid] | –
– | – | CC(C)C[C@H](N[C@@H](Cc1ccc(Oc2ccccc2)cc1)C(=O)O)C(=O)O [QJ, 2-[1-Carboxy-2-(4-phenoxy-phenyl)-ethylamino]-4-methyl-pentanoic acid] | Ki [1]: 100 to 500 nM
– | – | CC(C)C[C@H](N[C@@H](CN1C(=O)CN(Cc2ccc(C(F)(F)F)cc2C(F)(F)F)C1=O)C(=O)O)C(=O)O [PY, 2-[2-[3-(2,4-Bis-trifluoromethyl-benzyl)-2,5-dioxo-imidazolidin-1-yl]-1-carboxy-ethylamino]-4-methyl-pentanoic acid] | Ki [1]: > 500 nM
– | 100 to 500 nM | CC(C)C[C@H](N[C@@H](Cc1ccc(OCc2cccnc2)cc1)C(=O)O)C(=O)O [LX, S,S-2-{1-Carboxy-2-[4-(pyridin-3-ylmethoxy)-phenyl]-ethylamino}-4-methyl pentanoic acid] | –

Ki [2] | Ki [3] | Compound | further results
– | < 100 nM | CC(C)CC(N[C@@H](Cc1cncn1Cc1cccc(Cl)c1Cl)C(=O)O)C(=O)O (single isomer, unassigned) [IY, 2-[1-Carboxy-2-[3-(2.3-dichloro-benzyl)-3H-imidazol-4-yl]-ethylamino]4-methyl-pentanoic acid] | –
< 50 nM | < 100 nM | CC(C)C[C@H](N[C@@H](Cc1ccnn1Cc1cc(Cl)cc(Cl)c1)C(=O)O)C(=O)O [MV, 2-{1-carboxy-2-[2-(3,5-dichlorobenzyl)-2H-pyrazol-3-yl]-ethylamino}-4-methyl-pentanoic acid] | –
50 to 100 nM | < 100 nM | CC(C)C[C@H](N[C@@H](Cc1cccc(OCc2cccc(Cl)c2)c1)C(=O)O)C(=O)O [OO, S,S-2-{1-Carboxy-2-[3-(3-chloro-benzyloxy)-phenyl]-ethylamino}-4-methyl-pentanoic acid] | –
– | > 500 nM | Cc1cc(C)cc(COc2cccc(C[C@H](N[C@@H](CC(C)C)C(=O)O)C(=O)O)c2)c1 [OA, 2-[1-Carboxy-2-[3-(3,5-dimethyl-benzyloxy)-phenyl]-ethylamino]-4-methyl-pentanoic acid] | –
< 50 nM | < 100 nM | CC(C)C[C@H](N[C@@H](Cc1ccn(Cc2cc(Cl)cc(Cl)c2)n1)C(=O)O)C(=O)O [LP, (S,S)-2-{1-carboxy-2-[1-(3,5-dichlorobenzyl)-1H-pyrazol-3-yl]-ethylamino}-4-methyl pentanoic acid] | –
– | > 500 nM | CC(C)CC(N[C@@H](Cc1cncn1Cc1ccc(F)cc1)C(=O)O)C(=O)O (single isomer, unassigned) [IJ, 2-[1-Carboxy-2-[3-(4-fluoro-benzyl)-3H-imidazol-4-yl]-ethylamino]4-methyl-pentanoic acid] | –
– | – | CC(C)C[C@H](N[C@@H](Cc1cc(-c2ccccc2Cl)on1)C(=O)O)C(=O)O [QV, 2-[1-Carboxy-2-[5-(2-chloro-phenyl)-isoxazol-3-yl]-ethylamino]-4-methyl-pentanoic acid] | Ki [1]: < 100 nM
– | 100 to 500 nM | CC(C)C[C@H](N[C@@H](Cn1ccn(Cc2ccccc2)c1=O)C(=O)O)C(=O)O [LS, 2-[2-(3-Benzyl-2-oxo-2,3-dihydro-imidazol-1-yl)-1-carboxy-ethylamino]-4-methyl-pentanoic acid] | –
– | 100 to 500 nM | CC(C)C[C@H](N[C@@H](Cn1ccn(C2CCCCC2)c1=O)C(=O)O)C(=O)O [MN, 2-[1-Carboxy-2-(3-cyclohexyl-2-oxo-2,3-dihydro-imidazol-1-yl)-ethylamino]-4-methyl-pentanoic acid] | –
– | 100 to 500 nM | Cc1ccccc1Cn1cncc1C[C@H](NC(CC(C)C)C(=O)O)C(=O)O (single isomer, unassigned) [HW, 2-[1-Carboxy-2-[3-(2-methyl-benzyl)-3H-imidazol-4-yl]-ethylamino]4-methyl-pentanoic acid] | –
– | – | CC(C)CC(N[C@@H](Cc1csc(N)n1)C(=O)O)C(=O)O (single isomer, unassigned) [GU, 2-[2-(2-Amino-thiazol-4-yl)1-carboxy-ethylamino]-4-methyl-pentanoic acid] | Ki [4]: > 500 nM
< 50 nM | – | CC(C)C[C@H](N[C@@H](Cc1ccc(-c2csc3ccccc23)cc1)C(=O)O)C(=O)O [PA, 2-[2-(4-Benzo[b]thiophen-3-yl-phenyl)-1-carboxy-ethylamino]-4-methyl-pentanoic acid] | Ki [1]: < 100 nM
< 50 nM | 100 to 500 nM | Cc1ccc2nc(NC(=O)C[C@H](N[C@@H](CC(C)C)C(=O)O)C(=O)O)sc2c1 [NW, 2-[1-Carboxy-2-(6-methyl-benzothiazol-2-ylcarbamoyl)-ethylamino]-4-methyl-pentanoic acid] | –
– | > 500 nM | CC(C)C[C@H](N[C@@H](Cc1cccc(-c2cccc3ccccc23)c1)C(=O)O)C(=O)O [MX, (S,S)-2-[1-Carboxy-2-(3-naphthalen-1-yl-phenyl)-ethylamino]-4-methyl-pentanoic acid] | –
50 to 100 nM | < 100 nM | CC(C)C[C@H](N[C@@H](Cc1coc(-c2cc(Cl)cc(Cl)c2)n1)C(=O)O)C(=O)O [LN, (S,S)-2-{1-Carboxy-2-[2-(3,5-dichlorophenyl)-oxazol-4-yl]ethylamino}-4-methyl-pentanoic acid] | –
< 50 nM | < 100 nM | CC(C)C[C@H](N[C@@H](Cc1cncn1Cc1cc(Cl)cc(Cl)c1)C(=O)O)C(=O)OC(C)(C)C [NM, 2-[1-Carboxy-2-[3-(3,5-dichloro-benzyl)-3H-imidazol-4-yl]-ethylamino)4-methyl-pentanoic acidtert-butyl ester] | –
< 50 nM | < 100 nM | CC(C)C[C@H](N[C@@H](Cc1ccc(OCc2cc(Cl)cc(Cl)c2)cc1)C(=O)O)C(=O)O [KS, 2-[1-Carboxy-2-[4-(3,5-dichloro-benzyloxy)-phenyl]-ethylamino)-4-methyl-pentanoic acid] | –
– | – | CC(C)CC(N[C@@H](Cc1nc2ccccc2n1Cc1ccccc1)C(=O)O)C(=O)O (single isomer, unassigned) [GR, 2-[2-(1-Benzyl-1H-benzoimidazol-2-yl)-1-carboxy-ethylamino]-4-methyl-pentanoic acid] | Ki [4]: > 500 nM
